Measurements as given in publication PMC8536644, “Enigmatic mechanism of the N-vinylpyrrolidone hepatocarcinogenicity in the rat” (Archives of Toxicology, 2021).
Where “and” joins values, the source holds several entries; their conditions need not be identical. Identical values can stand only once.

Legend:
CYP1A = experiment: EROD assay, liver microsomes of NVP-treated rats (AhR marker); type: in vivo, rat; conditions: male rats
Experimental: (§1) The alkoxyresorufin dealkylase (AROD) assays were based on the method by Burke et al. ([1994]).
(§2) The frozen livers and lungs of the NVP-treated male Wistar rats were thawed and washed with isotonic (0.9%) NaCl solution. The tissues were ice-cooled homogenized (1 g tissue: 3 mL 0.25 M saccharose in 1 mM disodium EDTA, pH 7.4) and centrifuged (9000 g, 15 min, 4 °C). The supernatant fraction was centrifuged (100 000 g, 60 min, 4 °C). The resulting supernatant fraction was used for the palmitoyl-CoA-oxidase assay described further down. The pellet was taken up in 150 mM aqueous KCl solution, recentrifuged (100 000 g, 60 min, 4 °C) and the pellet taken up in 1 mL/g liver or 0.5 mL/g lung resuspension buffer (1 mM GSH, 1 mM disodium EDTA, 4 mM MgCl2, 0.1 M KH2PO4, pH 7.5 and 4% glycerol). Aliquots were stored at − 80 °C.
(§3) For determination of the enzyme activities in triplicates, 85 µL master mix (100 mM TrisHCl pH 7.5, 2 mM 5’AMP, 5 mM G-6-P, 10 U G-6-P-DH, 10 mM Dicumarol, 10 mM MgCl2, either 2 µM EROD or 10 µM PROD or 5 µM BROD) was added to 10 µL microsomal fraction (1 mg protein/mL). The reaction was started by the addition of 5 µL 2 mM NADPH (dissolved in 100 mM TrisHCl pH 7.5) followed by incubation at 37 °C for 16 min. The activity was determined by measuring the increase of the fluorescence (excitation at 550 nm, emission at 585 nm) due to resorufin formation compared with resorufin standards, which had been prepared by dissolving tenfold concentrated solutions in DMSO, which were then diluted tenfold in 100 mM TrisHCl pH 7.5.

rat hepatocytes = tested on: rat hepatocytes; parameters: method as in MAK [1994]; conditions: ref MAK [1994]; cited from earlier work
[1] = parameters: method as in ToxCast (comptox.epa.gov dashboard); conditions: ref ToxCast (comptox.epa.gov dashboard); cited from earlier work
CYP 2B/3A = experiment: BROD assay, lung microsomes; type: in vivo, rat; conditions: male rats
Experimental: as §1, §2, §3

Drosophila melanogaster = conditions: ref Knaap et al. [1985]; cited from earlier work
CYP4A = experiment: Lauric acid hydroxylase assay, 12-hydroxylation (PPARα marker); type: in vivo, rat
Experimental: ^14C-labelled lauric acid (55 mCi/mmol) dissolved in ethanol (0.1 mCi/mL; total volume 2.5 mL) was purchased from American Radiolabeled Chemicals. 10 µL of this solution were diluted with methanol to 2 mL. The purity was checked by radio-HPLC. For the enzyme activity determinations 1.21 mL of this solution were treated in the thermomixer at 40 °C and 300 rpm until the ethanol was completely evaporated. The residue was taken up in 550 µL DMSO and checked on the incubation days by radio-HPLC and by liquid scintillation counting (LSC). To this end the just-mentioned solution in DMSO (nominally 8.14 MBq/mL) was 100-fold diluted with methanol, 50 µL of the resultant solution used for the HPLC analysis, 100 µL for the LSC analysis (488,400 dpm/100 µL).
For the determination of the lauric acid hydroxylase activity the liver microsomal fractions (prepared as described in the preceding chapter “Aryl hydrocarbon receptor”) derived from the NVP-treated (and untreated control) male rats were adjusted with TrisHCl pH 7.5–20 mg protein/mL. Obtained samples were measured in duplicates. Controls were heat-denatured samples (15 min at 99 °C in the thermomixer at 450 rpm), zero-time samples (reaction stopped immediately after adding substrate) and buffer controls (TrisHCl pH 7.5, no microsomal protein). 155 µL master mix (100 mM TrisHCl pH 7.5, 10 mM MgCl2, 2 mM 5’AMP-Na2, 5 mM G-6-P, 10 U G-6-P-DH) and 30 µL sample were preincubated for 3 min at 37 °C. Subsequently 10 µL of a 2-mM NADPH solution and 5 µL ^14C-lauric acid (8.14 MBq/mL) were added (lauric acid final concentration in the incubation 100 µM). The reaction was run for 20 min at 37 °C in the thermomixer (450 rpm) and stopped by the addition of 200 µL ice-cold acetone. […]

rat liver = experiment: Liver histology, Oil Red O staining; type: in vivo; conditions: high dose group (20 ppm)
Experimental: ORO staining was performed essentially according to Lillie and Ashburn ([1943]), specifically under the following conditions:
Parts of the frozen (− 80 °C) livers from rats treated with 0, 5, 10 or 20 ppm NVP were soaked in tap water and then thoroughly frozen at − 40 °C. Subsequently they were cut at -10 to -15 °C into slices of 12–20 µm and stored in water until starting the staining procedure. The slices were then left for approximately 5 min in 60% isopropanol, subsequently stained for 10–12 min in ORO solution (5 g ORO dissolved in 1 L isopropanol, to this solution added 400 mL H2O, left at room temperature for 24 h and then filtered) and subsequently differentiated by immersing 2–3 times into 60% isopropanol. Afterwards they were left in water until they collected at the surface. Finally the slices were stained for 3 min in hematoxylin solution (1 g hematoxylin, 50 g KAl(SO4)2, 50 g chloral hydrate, 1 g citric acid/L H2O, then for maturation 0.2 g NaIO3/L). Subsequently they were left at least 10 min in water. Finally, the slices were transferred to microscope slides and covered with 40–60 °C warm Kaiser’s glycerol gelatin.

[2] = lauric acid 12-hydroxylation, liver microsomes, 20 ppm NVP, individual animals 19-24

Structure (SMILES): C=CN1CCCC1=O [NVP, N-vinylpyrrolidone]
- Liver microsomal EROD activity (CYP1A; 5 ppm): 20.5 ± 3.6 pmol/min/mg protein
- Liver microsomal EROD activity (CYP1A; 10 ppm): 22.0 ± 5.8 pmol/min/mg protein
- Liver microsomal EROD activity (CYP1A; 20 ppm): 16.9 ± 6.4 pmol/min/mg protein
- Unscheduled DNA Synthesis (UDS) test result (rat hepatocytes): negative
- Active in vitro assays in ToxCast [1]: 10 out of 847
- BROD activity in lung microsomes (CYP 2B/3A; 5 ppm): 22.9 ± 11.0 pmol/min/mg protein
- BROD activity in lung microsomes (CYP 2B/3A; 10 ppm): 25.5 ± 19.8 pmol/min/mg protein
- BROD activity in lung microsomes (CYP 2B/3A; 20 ppm): 82.1 ± 76.8 pmol/min/mg protein
- Sex-linked recessive lethal test result (Drosophila melanogaster): negative
- Increase of lauric acid 12-hydroxylation vs vehicle control (CYP4A; 20 ppm, not statistically significant): 1.3 fold
- ω-hydroxylase (CYP4A-activity), enzyme activity individual (CYP4A; [2]): 20,495 peak surface/min/mg protein and 20,593 peak surface/min/mg protein and 10,543 peak surface/min/mg protein and 14,545 peak surface/min/mg protein and 15,406 peak surface/min/mg protein and 6779 peak surface/min/mg protein
- ω-hydroxylase (CYP4A-activity), peak surface (CYP4A; [2]): 27,314 and 28,341 and 15,814 and 21,818 and 23,109 and 11,088
- Lipid-staining (oil red O) of centrilobular hepatocellular fatty change (rat liver): positive for only one male and one female animal
